Tests used:
[1] = molecular target: D(2) dopamine receptor (Rattus norvegicus) (UniProt P61169); assay: Compound was evaluated for affinity towards dopamine D2-like receptor in homogenate of caudate putamen tissue from rat brain
[2] = molecular target: 5-hydroxytryptamine receptor 2A (Rattus norvegicus, UniProt P14842); assay: ChEBML_2648
Experimental: Compound was evaluated for affinity towards cerebral 5-hydroxytryptamine 2A receptor in homogenate of caudate putamen tissue from rat brain

[3] = molecular target: T1, 5-hydroxytryptamine receptor 2C (Rattus norvegicus, UniProt P08909); assay: ChEBML_2831
T1 sequence (P08909 whole entry): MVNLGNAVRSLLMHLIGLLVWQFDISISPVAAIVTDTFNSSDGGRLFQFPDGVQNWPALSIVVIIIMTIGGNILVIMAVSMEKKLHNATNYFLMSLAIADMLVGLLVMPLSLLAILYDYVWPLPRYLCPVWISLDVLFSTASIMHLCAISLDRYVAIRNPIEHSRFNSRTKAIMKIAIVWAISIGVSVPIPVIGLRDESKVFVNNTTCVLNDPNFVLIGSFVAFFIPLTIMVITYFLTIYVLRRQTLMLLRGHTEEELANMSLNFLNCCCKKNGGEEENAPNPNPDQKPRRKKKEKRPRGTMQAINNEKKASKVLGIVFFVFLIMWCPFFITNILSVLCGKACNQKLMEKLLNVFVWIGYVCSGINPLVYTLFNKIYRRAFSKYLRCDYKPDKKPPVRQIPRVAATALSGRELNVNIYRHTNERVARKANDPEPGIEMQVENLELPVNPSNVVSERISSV
Experimental: Compound was evaluated for affinity towards cerebral 5-hydroxytryptamine 2C receptor in homogenate of caudate putamen tissue from rat brain

D(1A) dopamine receptor = D(1A) dopamine receptor (Rattus norvegicus, UniProt P18901); assay: ChEBML_59008
Chain of D(1A) dopamine receptor (P18901 whole entry): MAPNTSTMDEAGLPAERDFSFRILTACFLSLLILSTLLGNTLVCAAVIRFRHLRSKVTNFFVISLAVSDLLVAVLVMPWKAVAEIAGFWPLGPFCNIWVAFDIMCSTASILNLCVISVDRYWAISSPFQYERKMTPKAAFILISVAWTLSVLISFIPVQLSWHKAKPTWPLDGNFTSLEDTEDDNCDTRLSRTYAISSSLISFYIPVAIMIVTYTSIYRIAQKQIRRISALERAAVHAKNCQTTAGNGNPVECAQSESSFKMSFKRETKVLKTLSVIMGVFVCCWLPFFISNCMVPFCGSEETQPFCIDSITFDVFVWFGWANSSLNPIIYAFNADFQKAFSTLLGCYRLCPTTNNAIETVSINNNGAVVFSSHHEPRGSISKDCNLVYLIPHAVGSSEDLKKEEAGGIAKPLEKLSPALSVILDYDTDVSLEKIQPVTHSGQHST
Experimental: Compound was evaluated for affinity towards dopamine D1-like receptor in homogenate of caudate putamen tissue from rat brain

Chain of D(2) dopamine receptor (Rattus norvegicus) (P61169 whole entry, looked up): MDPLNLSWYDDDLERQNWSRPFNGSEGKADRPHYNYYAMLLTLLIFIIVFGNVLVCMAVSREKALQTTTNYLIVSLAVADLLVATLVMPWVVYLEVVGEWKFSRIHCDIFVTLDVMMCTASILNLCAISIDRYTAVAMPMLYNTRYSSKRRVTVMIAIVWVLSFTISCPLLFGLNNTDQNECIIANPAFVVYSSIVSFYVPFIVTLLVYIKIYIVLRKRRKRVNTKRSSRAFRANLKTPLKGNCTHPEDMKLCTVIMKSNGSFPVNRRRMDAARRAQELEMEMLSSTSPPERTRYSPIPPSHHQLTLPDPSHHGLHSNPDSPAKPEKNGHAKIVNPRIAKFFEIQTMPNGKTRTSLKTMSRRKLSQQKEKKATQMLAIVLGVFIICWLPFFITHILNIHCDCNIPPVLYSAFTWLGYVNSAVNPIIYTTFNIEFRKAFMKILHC
Chain of 5-hydroxytryptamine receptor 2A (P14842 whole entry): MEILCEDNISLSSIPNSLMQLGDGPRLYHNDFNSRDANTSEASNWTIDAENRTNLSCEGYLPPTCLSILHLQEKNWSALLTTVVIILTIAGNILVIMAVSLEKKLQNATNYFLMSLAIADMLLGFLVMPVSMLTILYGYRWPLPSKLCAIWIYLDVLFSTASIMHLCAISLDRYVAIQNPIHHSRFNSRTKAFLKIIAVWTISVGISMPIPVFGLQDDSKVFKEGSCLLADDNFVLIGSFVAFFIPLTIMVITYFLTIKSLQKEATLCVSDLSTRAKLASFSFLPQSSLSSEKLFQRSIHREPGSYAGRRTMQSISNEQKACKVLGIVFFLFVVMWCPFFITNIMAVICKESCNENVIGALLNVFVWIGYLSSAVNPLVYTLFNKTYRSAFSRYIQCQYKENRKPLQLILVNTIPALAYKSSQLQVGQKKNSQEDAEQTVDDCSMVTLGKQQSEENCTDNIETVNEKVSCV

CN1CCc2cc(Cl)c(O)cc2C(c2cccc(Br)c2)C1 (centres undefined) [5-(3-Bromo-phenyl)-8-chloro-3-methyl-2,3,4,5-tetrahydro-1H-benzo[d]azepin-7-ol]
Ki [1]: 1120 nM

CN1CCc2cc(Cl)c(O)cc2C(c2ccccc2C(=O)C2=CC=C[C@@H]2[Re]([CH]=O)([CH]=O)[CH]=O)C1 (some centres undefined) [Cyclopentadienyltricarbonylrheniumbenzazepine (2`-CPTR-SCH-23390)]
Ki [2]: 17 nM | Ki [3]: 29 nM | Ki (D(1A) dopamine receptor): 0.61 nM | Ki [1]: 549 nM

CN1CCc2cc(Cl)c(O)cc2C(c2cccc(C(=O)C3=CC=C[C@@H]3[Re]([CH]=O)([CH]=O)[CH]=O)c2)C1 (some centres undefined) [Cyclopentadienyltricarbonylrheniumbenzazepine (3`-CPTR-SCH-23390)]
Ki [2]: 227 nM | Ki [3]: 106 nM | Ki (D(1A) dopamine receptor): 2.9 nM | Ki [1]: > 10000 nM

Source: BindingDB's records for doi:10.1016/s0960-894x(00)00185-2 (Yale University, 2000)
